Literature values, collected in patent US20260182571A1, “A ME[…] AND USE THEREOF” (I-TECH AB, priority 2022, published 2026).

Settings: pH 7 and 20° C.

For `On1ccccc1=S.On1ccccc1=S.[Cu]` [CuPT, copper (II) pyrithione], the “(equilibrium) water solubility” value is given as “less than 0.039 mg/L”.
